Reference: doi:10.1101/2025.07.08.663693v1 (biorxiv, 2025)

Columns and labels:
SLIT2/ROBO1 = molecular target: T1, SLIT2/ROBO1 (Homo sapiens, UniProt O94813); test: TR-FRET SLIT2/ROBO1 interaction inhibition; assay type: binding
T1 sequence (O94813 31-1529): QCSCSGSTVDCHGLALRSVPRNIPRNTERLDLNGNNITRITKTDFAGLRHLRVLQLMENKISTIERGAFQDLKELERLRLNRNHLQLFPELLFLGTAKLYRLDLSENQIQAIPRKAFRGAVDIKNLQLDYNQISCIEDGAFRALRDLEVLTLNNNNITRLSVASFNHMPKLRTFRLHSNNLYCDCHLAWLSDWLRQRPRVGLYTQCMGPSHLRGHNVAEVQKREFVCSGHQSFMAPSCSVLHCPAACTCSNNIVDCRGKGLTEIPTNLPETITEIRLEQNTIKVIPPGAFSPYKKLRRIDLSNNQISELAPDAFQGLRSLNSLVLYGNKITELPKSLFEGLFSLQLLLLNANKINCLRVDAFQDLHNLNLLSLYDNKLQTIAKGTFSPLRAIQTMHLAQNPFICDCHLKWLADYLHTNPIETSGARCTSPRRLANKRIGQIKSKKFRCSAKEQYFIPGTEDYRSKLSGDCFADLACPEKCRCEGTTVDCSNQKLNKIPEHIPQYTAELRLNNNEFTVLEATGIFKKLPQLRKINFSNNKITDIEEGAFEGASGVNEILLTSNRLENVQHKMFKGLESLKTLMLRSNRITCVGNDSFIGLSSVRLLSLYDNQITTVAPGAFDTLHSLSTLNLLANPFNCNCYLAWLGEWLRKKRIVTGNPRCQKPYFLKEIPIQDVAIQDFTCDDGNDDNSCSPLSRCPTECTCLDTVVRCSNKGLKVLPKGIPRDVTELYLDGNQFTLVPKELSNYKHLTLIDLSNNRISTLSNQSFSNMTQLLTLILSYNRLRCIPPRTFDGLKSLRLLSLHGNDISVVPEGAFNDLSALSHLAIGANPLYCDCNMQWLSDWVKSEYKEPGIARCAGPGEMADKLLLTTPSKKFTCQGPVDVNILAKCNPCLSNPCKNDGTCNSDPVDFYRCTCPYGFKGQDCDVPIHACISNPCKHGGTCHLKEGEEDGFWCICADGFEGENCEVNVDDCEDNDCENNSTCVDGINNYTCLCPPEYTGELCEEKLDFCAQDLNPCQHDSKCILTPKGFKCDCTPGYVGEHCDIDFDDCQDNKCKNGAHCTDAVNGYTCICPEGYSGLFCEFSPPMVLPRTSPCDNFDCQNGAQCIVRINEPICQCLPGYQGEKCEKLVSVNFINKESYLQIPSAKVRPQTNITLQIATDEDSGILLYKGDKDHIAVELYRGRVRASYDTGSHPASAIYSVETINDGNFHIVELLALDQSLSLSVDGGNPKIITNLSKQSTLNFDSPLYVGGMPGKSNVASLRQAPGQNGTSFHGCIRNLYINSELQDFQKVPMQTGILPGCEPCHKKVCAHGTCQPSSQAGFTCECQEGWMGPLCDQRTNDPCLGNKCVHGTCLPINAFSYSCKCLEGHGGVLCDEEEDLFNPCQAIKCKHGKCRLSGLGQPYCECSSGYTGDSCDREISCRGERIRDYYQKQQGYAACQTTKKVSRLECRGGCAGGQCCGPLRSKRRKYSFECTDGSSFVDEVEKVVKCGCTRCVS
T1 sequence (Q9Y6N7 26-897 partner limits assumed): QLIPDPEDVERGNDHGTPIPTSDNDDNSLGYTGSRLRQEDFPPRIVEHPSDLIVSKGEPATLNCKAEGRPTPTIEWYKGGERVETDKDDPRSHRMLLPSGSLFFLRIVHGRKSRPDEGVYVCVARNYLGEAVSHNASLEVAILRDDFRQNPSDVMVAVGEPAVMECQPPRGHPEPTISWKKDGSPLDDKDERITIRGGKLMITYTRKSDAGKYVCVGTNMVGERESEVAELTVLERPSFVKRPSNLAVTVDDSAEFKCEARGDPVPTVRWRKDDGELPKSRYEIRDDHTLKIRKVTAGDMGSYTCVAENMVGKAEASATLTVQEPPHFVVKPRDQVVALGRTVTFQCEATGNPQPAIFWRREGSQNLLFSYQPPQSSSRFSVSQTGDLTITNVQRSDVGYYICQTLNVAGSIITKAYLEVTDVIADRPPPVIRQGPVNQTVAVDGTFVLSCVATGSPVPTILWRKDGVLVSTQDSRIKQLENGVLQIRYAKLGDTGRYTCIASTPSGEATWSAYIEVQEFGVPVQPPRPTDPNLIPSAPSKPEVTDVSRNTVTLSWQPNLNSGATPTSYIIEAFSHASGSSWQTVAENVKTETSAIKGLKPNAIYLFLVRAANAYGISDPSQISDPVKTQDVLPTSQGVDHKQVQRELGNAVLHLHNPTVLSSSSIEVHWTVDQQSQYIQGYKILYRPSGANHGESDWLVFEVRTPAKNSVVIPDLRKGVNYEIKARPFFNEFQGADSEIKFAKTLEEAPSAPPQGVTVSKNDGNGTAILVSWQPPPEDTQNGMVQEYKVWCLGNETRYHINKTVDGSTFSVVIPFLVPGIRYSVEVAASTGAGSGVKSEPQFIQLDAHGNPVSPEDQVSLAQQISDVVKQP

hSLIT2-His = molecular target: T2, hSLIT2-His (Homo sapiens, UniProt O94813); test: TRIC/MST dose response; assay type: binding
T2 sequence (O94813 31-1529): T1 sequence (O94813 31-1529)

IC50 (SLIT2/ROBO1): 22.8 ± 3.85 µM | Kd (hSLIT2-His): 2.62 µM
SMILES: C=C(c1ccc(C(=O)O)cc1)c1cc2c(cc1C)C(C)(C)CCC2(C)C [bexarotene]
